What was measured:
human SLC5A8 [1] = target: T1, human SLC5A8 (Homo sapiens, UniProt Q8N695, F251V/V193I); experiment: Uptake of radiolabeled short-chain fatty acids in Xenopus oocytes injected with SLC5A8 cRNA; assay type: cell-based; conditions: 1 h incubation
T1 construct: We amplified the coding region of SLC5A8 mRNA by RT-PCR using human intestinal mRNA as the template; expressed in transfected cells; host or cells: Xenopus laevis oocytes, 50 ng capped cRNA from the pGH19 construct
T1 sequence (Q8N695 1-610 V193I/F251V): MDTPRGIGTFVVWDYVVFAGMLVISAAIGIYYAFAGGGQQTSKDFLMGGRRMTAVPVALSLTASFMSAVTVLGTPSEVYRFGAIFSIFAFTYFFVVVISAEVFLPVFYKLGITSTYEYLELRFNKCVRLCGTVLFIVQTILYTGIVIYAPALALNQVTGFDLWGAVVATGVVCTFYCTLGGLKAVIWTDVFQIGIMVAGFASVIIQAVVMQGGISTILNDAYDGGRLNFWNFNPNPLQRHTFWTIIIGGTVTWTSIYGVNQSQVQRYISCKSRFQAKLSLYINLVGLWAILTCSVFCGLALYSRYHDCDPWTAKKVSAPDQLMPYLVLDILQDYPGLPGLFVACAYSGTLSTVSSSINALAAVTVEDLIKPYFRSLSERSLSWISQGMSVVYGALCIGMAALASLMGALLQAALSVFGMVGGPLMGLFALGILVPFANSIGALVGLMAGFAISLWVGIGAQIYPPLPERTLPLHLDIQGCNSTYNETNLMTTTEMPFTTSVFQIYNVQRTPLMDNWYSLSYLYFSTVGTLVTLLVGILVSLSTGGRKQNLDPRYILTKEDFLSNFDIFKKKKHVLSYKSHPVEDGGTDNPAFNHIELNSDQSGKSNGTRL
Procedure: (§1) The amplified human SLC5A8 cDNA was expressed heterologously in Xenopus oocytes by cRNA injection. Capped cRNA from SLC5A8 cDNA was synthesized using the mMESSAGE mMACHINE kit (Ambion Inc., Austin, Tex.). Mature oocytes (stage 1V or V) from Xenopus laevis were injected with 50 ng cRNA. Uninjected oocytes served as controls. The oocytes were used for uptake and electrophysiological studies 3-6 days after cRNA injection. Uptake of radiolabeled substrates in uninjected and cRNA-injected oocytes was determined as described previously (Fei, Y. J., et al., (1995) Biochemistry 34, 8744-8751).
(§2) Eight oocytes were used for each uptake measurement. Electrophysiological studies were performed by the two-microelectrode voltage clamp method (11. Wang, H., Fei, et al., (2000) Am. J. Physiol. 278:C1019-C1030; Inoue, K, et al. (2004) Biochem. J. 378:949-957).
Uptake of short-chain fatty acids in uninjected oocytes and in oocytes injected with SLC5A8 cRNA was measured with 1 h incubation. Concentration of substrates (labeled plus unlabeled) varied in the range of 50-500 μM depending on the specific radioactivity of the substrates. Eight oocytes were used for each uptake measurement. Data represent means±SE.

human SLC5A8 [2] = target: T1, human SLC5A8; experiment: Two-microelectrode voltage clamp of substrate-induced currents in SLC5A8-expressing oocytes; assay type: cell-based
Procedure: as §1, §2
Oocytes were perfused with a NaCl-containing buffer (100 mM NaCl, 2 mM KCl, 1 mM MgCl2, 1 mM CaCl2, 3 mM Hepes, 3 mM Mes, and 3 mM Tris, pH 7.5), followed by the same buffer containing different fatty acids. The membrane potential was clamped at −50 mV. The differences between the steady-state currents measured in the presence and absence of substrates were considered as the substrate-induced currents. To investigate the current-membrane potential (I—V) relationship, step changes in membrane potential were applied, each for a duration of 100 ms in 20-mV increments. The kinetic parameter K0.5 (i.e. the substrate concentration necessary for the induction of half-maxima) current) was calculated by fitting the values of the substrate-induced currents to Michaelis-Menten equation. The Na^+-activation kinetics was analyzed by measuring the substrate-specific currents in the presence of increasing concentrations of Na^+. The data were analyzed by the Hill equation to determine the Hill coefficient (h; the number of Na^+ ions involved in the activation process). The kinetic parameters were determined using the computer program Sigma Plot, version 6.0 (SPSS, Inc., Chicago, Ill.). Electrophysiological measurements of substrate-induced currents were repeated at least four times with separate oocytes. The data are presented as means±S.E. of these replicates.
The charge-to substrate transfer ratio was determined for propionate in four different oocytes as described previously (Wang, H., et al. (2000) Am. J. Physiol. 278:C1019-C1030 12. Inoue, K., Fei, Y. J., Zhuang, L., Gopal, E., Miyauchi, S., and Ganapathy, V. (2004) Biochem. J. 378:949-957). The oocytes were perfused with 25 μM propionate (unlabeled plus radiolabeled propionate), and inward currents were monitored over a period of 8-10 min. At the end of the experiment, the amount of propionate transported into the oocytes was calculated by measuring the radioactivity associated with the oocytes. The area within the curve describing the relationship between the time and inward current was integrated to calculate the charge transferred into the oocyte during incubation with propionate. The values for substrate transfer and charge transfer were used to determine the charge to substrate transfer ratio.

HDAC = HDAC activity in a cell-free system with MCF7 cell lysate; assay type: biochemical, human
Procedure: Measurement of HDAC activity in a cell-free system: This was done using a commercially available assay kit (BioVision). MCF7 cell lysate was used as a source of HDAC activity. 50 μg of lysate protein was incubated with various monocarboxylates (1 mM), or trichostatin A (20 μM), and the reaction was initiated by the addition of HDAC substrate. The reaction was then terminated and the deacetylated product was measured according to the manufacturer's instructions. The activity is expressed in nmoles of deacetylated product formed per μg of MCF7 cell lysate protein per 30 min.

## CC(=O)O [acetate]
Human SLC5A8 [1]
  Fold increase of uptake (cRNA-injected over uninjected): 1.8 fold
Human SLC5A8 [1]; SLC5A8 cRNA-injected oocytes
  Uptake, cRNA-injected oocytes: 0.059 ± 0.003
Human SLC5A8 [1]; uninjected control oocytes
  Uptake, uninjected oocytes: 0.032 ± 0.001
Human SLC5A8 [2]; 5 mM, -50 mV
  Relative magnitude of substrate-induced currents: intermediate
Human SLC5A8 [2]; four oocytes
  K0.5 for SLC5A8: 2.46 ± 0.89 mM
HDAC
  HDAC inhibition (in words): least potent
